Patent publication US20230084927A1, “GLUCOSE UPTAKE INHIBITORS AND USES THEREOF” (METABOMED LTD., priority 2019, published 2023)
Like-named read-outs stand apart in the source and are kept apart here.

What was measured:
SDH-WT cells = assay: Cellular / differential toxicity assay (CellTiter-Glo, 3 days); type: cell-based, murine; conditions: toxicity, SDH-WT cells, 3 days, CellTiter-Glo, read-out: EC50 (uM) SDH-WT
Method: (§1) Identification of compounds that target specifically SDH-deficient cells was done by screening a library of small-molecule by using a differential toxicity screen with SDHB-proficient vs. SDHB-deficient cells (the […] cells were described in Cardaci 2015).
(§2) Cells Used for the Differential Assays: SDH-WT; SDH-KO-HRAS
(§3) Cell Culture Conditions: • Medium: DMEM-F12 medium+1 mM Glutamine+3% FBS • Plates: 96 well plate—Black, clear flat bottom • Incubation time: 3 days • Compound concentration: 10 point dilution starting from 10 uM to 0.0065 uM or a lower range when needed. • Viability assay at the end of incubation: Celltiter-Glo (CTG) from Promega.
(§4) Protocol: • Day 1: Plate cells in 96 well plate together with the appropriate concentration of compound.
(§5) Incubate for 3 days at 37° C. in 5% CO2 tissue culture incubator. • Day 4: Check viability of cells by adding CTG reagent and read luminescence in plate reader
(§6) SDH-WT and SDH-KO cells were grown in DMEM F12 supplemented with 1 mM Glutamine+3% FBS were treated with different concentrations of the indicated compounds in FIG. 11. Cell viability was determined 72 hours later by CellTiter Glue reagent (Promega), the luminescence was measured with ClarioStar reader (BMG) and the EC50s were calculated by Prism.
as §6, with “compounds.” for “compounds in FIG. 11.”
(§7) The cells were grown in DMEM F12 supplemented with 1 mM Glutamine+3% FBS were treated with different concentrations of the indicated compounds. Cell viability was determined 72 hours later by CellTiter Glue reagent (Promega), the luminescence was measured with ClarioStar reader (BMG) and the EC50s were calculated by Prism. Murine SDHB-WT/KO, HRAS transformed isogenic pair (FIG. 12A); UOK269, Human Tumor-derived SDHB-deficient RCC in their WT counterpart with re-expression of SDHB (FIG. 12B); and ACHN, RCC cells, and their SDHB-KO (SDHB CRISPRed out) isogenic cells (FIG. 12C).

[1] = test system: SDH-KO-HRAS cells (SDHB-deficient); assay: as above; type: cell-based, murine; conditions: toxicity, SDH-KO cells, 3 days, CellTiter-Glo, read-out: EC50 (uM) SDH-KO-HTAS-C17
Method: as §1, §2, §3, §4, §5, §6
as §6, with “compounds.” for “compounds in FIG. 11.”
as §7

| Compound | EC50 (SDH-WT cells; Mus musculus, 72 h) [µM] | EC50 ([1]; Mus musculus, 72 h) [µM] | EC50 (SDH-WT cells) [µM] | EC50 [1] [µM] |
| --- | --- | --- | --- | --- |
| CC(C)(C)Nc1ncnc2c1sc1nc3c(cc12)COC(C)(C)C3 [Compound 259] | > 10 | > 10 |  |  |
| CC1(C)Cc2nc3sc4c(N(CCO)Cc5ccccc5)ncnc4c3cc2CO1 [Compound 271] | 3 to 10 | > 10 |  |  |
| CCN1CCN(c2ncnc3c2sc2nc4c(cc23)COC(C)(C)C4)CC1 [Compound 280] | > 10 | > 10 |  |  |
| COCCOCCOCCOC(=O)c1c2c(nc3sc4c(NCCc5ccc6[nH]cnc6c5)ncnc4c13)CC(C)(C)OC2 [Compound 165, 2-(2-(2-Methoxyethoxy)ethoxy)ethyl 4-((2-(1H-benzo[d]imidazol-6-yl)ethyl)amino)-8,8-dimethyl-8,10-dihydro-7H-pyrano[3″,4″:5′,6′]pyrido[3′,2′:4,5]thieno[3,2-d]pyrimidine-11-carboxylate] | > 10 | 1 to 3 |  |  |
| CC1(C)Cc2nc3sc4c(NCCc5ccc(NCc6ccccc6)c(N)c5)ncnc4c3cc2CO1 [Compound 192] | < 1 | < 1 |  |  |
| CC1(C)Cc2nc3sc4c(NCCc5ccc6[nH]cnc6c5)ncnc4c3c(COC3CCCCC3)c2CO1 [Compound 327, N-(2-(1H-Benzo[d]imidazol-5-yl)ethyl)-11-((cyclohexyloxy)methyl)-8,8-dimethyl-7,10-dihydro-8H-pyrano[3″,4″:5′,6′]pyrido[3′,2′:4,5]thieno[3,2-d]pyrimidin-4-amine] | < 1 | < 1 |  |  |
| Cc1nc(NCCN(C)C)c2sc3nc4c(cc3c2n1)COC(C)(C)C4 [Compound 225] | > 10 | > 10 |  |  |
| COc1ccc(CCNc2ncnc3c2sc2nc4c(cc23)CCC4)cc1F [Compound 108, N-(3-Fluoro-4-methoxyphenethyl)-8,9-dihydro-7H-cyclopenta[5′,6′]pyrido-[3′,2′:4,5]thieno[3,2-d]pyrimidin-4-amine] | 1 to 3 | > 10 |  |  |
| COc1ccc(CCNc2ncnc3c2sc2nc4c(cc23)COC(C)(C)C4)cc1F [Compound 122] | > 10 | < 1 |  |  |
| Cc1nc(NC(C)CCc2ccccc2)c2sc3nc4c(cc3c2n1)COC(C)(C)C4 (stereo not shown) [Compound 265] |  |  | 3 to 10 | > 10 |
| COc1ccc(CCNC(=O)c2sc3nc4c(cc3c2N)COC(C)(C)C4)cc1F [Compound 208] | > 10 | > 10 |  |  |
| COc1ccc(CCNc2ncnc3c2sc2ncccc23)cc1F [Compound 110] | > 10 | 1 to 3 |  |  |
| CC1(C)Cc2nc3sc4c(NCCc5ccc6[nH]cnc6c5)ncnc4c3c(-c3cncs3)c2CO1 [Compound 318] | < 1 | < 1 |  |  |
| CC1(C)Cc2nc3sc4c(NCCc5ccc6c(c5)OCCO6)ncnc4c3cc2CO1 [Compound 131] | > 10 | > 10 |  |  |
| CSc1c2c(nc3sc4c(NCCc5ccc6nc[nH]c6c5)ncnc4c13)CC(C)(C)OC2 [Compound 167] | < 1 | < 1 |  |  |
| CC1(C)Cc2nc3sc4c(NCCc5ccc6[nH]cnc6c5)ncnc4c3c(C(=O)O)c2CO1 [Compound 171, 4-((2-(1H-Benzo[d]imidazol-6-yl)ethyl)amino)-8,8-dimethyl-8,10-dihydro-7H-pyrano[3″,4″:5′,6′]pyrido[3′,2′:4,5]thieno[3,2-d]pyrimidine-11-carboxylic Acid] | 3 to 10 | 3 to 10 |  |  |
| CC1(C)Cc2nc3sc4c(NCCc5ccc6[nH]c(=O)[nH]c6c5)ncnc4c3cc2CO1 [Compound 196] | 3 to 10 | < 1 |  |  |
| COc1ccc(CCNc2ncnc3c2sc2nc4c(cc23)COCC4)cc1F [Compound 303] | > 10 | < 1 |  |  |
| CN(C)CCCNc1ncnc2c1sc1nc3c(cc12)COC(C)(C)C3 [Compound 228] | > 10 | > 10 |  |  |
| CC1(C)Cc2nc3sc4c(NCCO)ncnc4c3cc2CO1 [Compound 257] | > 10 | > 10 |  |  |
| COc1cccc(CCNc2ncnc3c2sc2nc4c(cc23)COC(C)(C)C4)c1OC [Compound 103] | > 10 | > 10 |  |  |
| CC1(C)Cc2nc3sc4c(NCCc5ccc(N)c(N)c5)ncnc4c3cc2CO1 [Compound 193] | 1 to 3 | < 1 |  |  |
| COc1ccc(CCNc2ncnc3c2sc2nc4c(cc23)COC(C)(C)C4)cc1 [Compound 129] | > 10 | < 1 |  |  |
| CC1(C)Cc2nc3sc4c(NCCN5CCOCC5)ncnc4c3cc2CO1 [Compound 267] | > 10 | > 10 |  |  |

| Compound | EC50 (SDH-WT cells; Mus musculus, 72 h) [µM] | EC50 ([1]; Mus musculus, 72 h) [µM] | EC50 (SDH-WT cells) [µM] | EC50 [1] [µM] |
| --- | --- | --- | --- | --- |
| COCCNc1ncnc2c1sc1nc3c(cc12)COC(C)(C)C3 [Compound 283] | > 10 | > 10 |  |  |
| CC(Nc1ncnc2c1sc1nc3c(cc12)COC(C)(C)C3)c1ccccc1 (stereo not shown) [Compound 274] | > 10 | > 10 |  |  |
| CC(O)CN(CC(C)O)c1ncnc2c1sc1nc3c(cc12)COC(C)(C)C3 (stereo not shown) [Compound 285] | > 10 | > 10 |  |  |
| CCCCN(CCCC)c1ncnc2c1sc1nc3c(cc12)COC(C)(C)C3 [Compound 258] | > 10 | > 10 |  |  |
| CC1(C)Cc2nc3sc4c(NCc5ccccc5)ncnc4c3cc2CO1 [Compound 135] | > 10 | > 10 |  |  |
| CCCCNc1ncnc2c1sc1nc3c(cc12)COC(C)(C)C3 [Compound 294] |  |  | > 10 | > 10 |
| CC(=O)CNc1ccc(CCNc2ncnc3c2sc2nc4c(cc23)COC(C)(C)C4)cc1F [Compound 191] | 3 to 10 | 1 to 3 |  |  |
| CC(C)COCc1c2c(nc3sc4c(NCCc5ccc6[nH]cnc6c5)ncnc4c13)CC(C)(C)OC2 [Compound 323, N-(2-(1H-Benzo[d]imidazol-5-yl)ethyl)-11-(isobutoxymethyl)-8,8-dimethyl-7,10-dihydro-8H-pyrano[3″,4″:5′,6′]pyrido[3′,2′:4,5]thieno[3,2-d]pyrimidin-4-amine] | < 1 | < 1 |  |  |
| CC(=O)CN(C(=O)C(F)(F)F)c1ccc(CCNc2ncnc3c2sc2nc4c(cc23)COC(C)(C)C4)cc1F [Compound 198] | 3 to 10 | < 1 |  |  |
| CN(C)CCNc1ncnc2c1sc1nc3c(cc12)COC(C)(C)C3 [Compound 227] | > 10 | > 10 |  |  |
| CC1(C)Cc2nc3sc4c(N5CCC(Cc6ccccc6)CC5)ncnc4c3cc2CO1 [Compound 279] | > 10 | > 10 |  |  |
| OC1CCc2nc3sc4c(NCCc5ccc6[nH]cnc6c5)ncnc4c3cc2C1 (stereo not shown) [Compound 169] | 1 to 3 | < 1 |  |  |
| Cc1nc(NCCC(C)C)c2sc3nc4c(cc3c2n1)COC(C)(C)C4 [Compound 251] | > 10 | > 10 |  |  |
| COc1ccc(C2CCN(c3ncnc4c3sc3nc5c(cc34)COC(C)(C)C5)C2)cc1F (stereo not shown) [Compound 105] | 3 to 10 | 3 to 10 |  |  |
| Cc1nc(N2CCCCC2)c2sc3nc4c(cc3c2n1)COC(C)(C)C4 [Compound 233] | > 10 | > 10 |  |  |
| Cc1nc(NCCN2CCOCC2)c2sc3nc4c(cc3c2n1)COC(C)(C)C4 [Compound 230] | > 10 | > 10 |  |  |
| CCCCCCCNc1ncnc2c1sc1nc3c(cc12)COC(C)(C)C3 [Compound 255] | > 10 | > 10 |  |  |
| CCCN(CCC)c1nc(C)nc2c1sc1nc3c(cc12)COC(C)(C)C3 [Compound 248] | > 10 | > 10 |  |  |
| Cc1nc(NCCCO)c2sc3nc4c(cc3c2n1)COC(C)(C)C4 [Compound 222] | > 10 | > 10 |  |  |
| CC1(C)Cc2nc3sc4c(NCc5ccco5)ncnc4c3cc2CO1 [Compound 232] | > 10 | > 10 |  |  |
| Cc1nc(NCCc2ccc3[nH]cnc3c2)c2sc3nc4c(cc3c2n1)COC(C)(C)C4 [Compound 313] | 3 to 10 | 3 to 10 |  |  |
| CC(=O)OC(C)C(=O)Nc1ccc(CCNc2ncnc3c2sc2nc4c(cc23)COC(C)(C)C4)cc1N (stereo not shown) [Compound 186] | 3 to 10 | 1 to 3 |  |  |
| CCCCCCCNc1nc(C)nc2c1sc1nc3c(cc12)COC(C)(C)C3 [Compound 241] | > 10 | > 10 |  |  |
